Measurements from patent publication US10364222B2, “Cyclic amine derivative and medical use thereof” (Toray Industries, Inc., priority 2016, dated 2019).

Legend:
[1] = target: T1, ligand-binding domain of RORγ (RORγ-LBD) (Homo sapiens, UniProt P51449); assay: Inhibitory effect on RORγ-coactivator binding (LanthaScreen TR-FRET RORγ Coactivator Assay); conditions: at 33 μmol/L of the test compound; read-out: RORγ-coactivator binding inhibition rate (%)
T1 construct: purchased Invitrogen
T1 sequence (P51449 269-508 limits assumed): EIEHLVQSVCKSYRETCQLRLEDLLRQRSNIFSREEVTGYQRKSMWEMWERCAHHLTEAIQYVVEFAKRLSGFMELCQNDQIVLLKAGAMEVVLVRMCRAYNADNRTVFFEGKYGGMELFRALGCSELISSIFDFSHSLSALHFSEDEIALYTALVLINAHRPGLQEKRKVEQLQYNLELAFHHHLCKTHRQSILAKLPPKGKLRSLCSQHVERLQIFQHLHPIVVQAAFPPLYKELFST
Procedure: The inhibitory effect of the cyclic amine derivative (I) or a pharmacologically acceptable salt thereof on the binding between a ligand-binding domain of RORγ (hereinafter referred to as RORγ-LBD) and a coactivator was evaluated using Invitrogen's LanthaScreen™TR-FRET Retinoid-Related Orphan Receptor (ROR) gamma Coactivator Assay kit utilizing time-resolved fluorescence energy transfer (TR-FRET).
The test compound was dissolved in DMSO and diluted with TR-FRET Coregulator Buffer D (Invitrogen) containing 5 mmol/L of DTT to have a final DMSO concentration of 1% before use. To each well of a 384-well black plate (Corning Inc.), 4 nmol/L of GST-fused RORγ-LBD (Invitrogen) diluted with the buffer mentioned above and the test compound were added. A well without addition of the test compound and without addition of GST-fused RORγ-LBD (background) and a well without addition of the test compound and with addition of GST-fused RORγ-LBD (control) were prepared. Next, 150 nmol/L of fluorescein-labeled TRAP220/DRIP-2 (Invitrogen) diluted with the buffer mentioned above and 32 nmol/L of terbium-labeled anti-GST antibody (Invitrogen) were added to each well. After incubating the plate at room temperature for 16 to 24 hours, the fluorescence at 495 nm and 520 nm when excited at 320 nm was measured for each well and the ratio (fluorescence value at 520 nm/fluorescence value at 495 nm) was calculated.
The fold change with addition of the test compound (ratio with addition of the test compound/ratio of the background), the fold change of the control (ratio of the control/ratio of the background), and the fold change of the background (ratio of the background/ratio of the background) were calculated, and then the inhibition rate of binding between RORγ-LBD and a coactivator (hereinafter referred to as RORγ-coactivator binding inhibition rate) (%) was calculated from Formula 1: RORγ-coactivator binding inhibition rate(%)=(1−((Fold change with addition of the test compound)−(Fold change of the background))/((Fold change of the control)−(Fold change of the background)))×100 Formula 1

[2] = tested on: IL-17 production in mouse splenocytes; assay: Suppressive effect on IL-17 production by IL-23 stimulation in mouse splenocytes; assay type: cell-based; conditions: Splenocyte, 72 h, at 5 μmol/L of the test compound, 10 ng/mL human IL-23, 3 days, read-out: IL-17 production inhibition rate (%)
Procedure: Using mouse splenocytes, the suppressive effect of the cyclic amine derivative (I) or a pharmacologically acceptable salt thereof on IL-17 production by IL-23 stimulation was evaluated by a partially modified method mentioned in The Journal of Biological Chemistry, 2003, Vol. 278, No. 3, p. 1910-1914.
A single cell suspension was prepared from the spleen of C57BL/6J mice (male, 7 to 23 weeks old) (Charles River Laboratories Japan, Inc.) and splenocytes were prepared using Histopaque-1083 (Sigma-Aldrich Japan). The culture medium was used by adding 10% FBS (Gibco), 50 U/mL of penicillin 50 μg/mL of streptomycin (Gibco), 50 μmol/L of 2-mercaptoethanol (Gibco), and 100 U/mL of human IL-2 (Cell Science & Technology Institute, Inc.) to RPMI1640 medium (Gibco). The test compound was dissolved in DMSO and then diluted with the culture medium to have a final concentration of DMSO of 0.1% before use. Splenocytes (3×10^5 cells/well) prepared in the culture medium were seeded in wells of a 96-well flat-bottom plate (Corning Incorporated), the test compound and 10 ng/mL of human IL-23 (R & D systems, Inc.) were added thereto, and the cells were cultured at 37° C. under 5% CO2 for 3 days. A well without addition of human IL-23 and without addition of the test compound and a well with addition of human IL-23 and without addition of the test compound were prepared. After completion of the culture, the culture supernatant was collected and the IL-17 production amount in the supernatant was determined by ELISA method (R & D systems, Inc.).
The IL-17 production inhibition rate (%) was calculated from Formula 2. IL-17 production inhibition rate(%)=(1−((IL-17 production amount with addition of IL-23 and with addition of the test compound)−(IL-17 production amount without addition of IL-23 and without addition of the test compound))/((IL-17 production amount with addition of IL-23 and without addition of the test compound)−(IL-17 production amount without addition of IL-23 and without addition of the test compound)))×100 Formula 2

Molecule `Cn1ccnc1CC(=O)N1CCCCC1C(=O)Nc1ccc(-c2ccccc2OC(F)(F)F)c(Cl)c1` (stereo not shown) [Example 50, N-(2-chloro-2′-(trifluoromethoxy)-[1,1′-biphenyl]-4-yl)-1-(2-(1-methyl-1H-imidazol-2-yl)acetyl)piperidine-2-carboxamide] has an inhibition at 33 µM [1] of 101% and an inhibition at 5 µM [2] of 94.5%.

In the case of `COCCC(=O)N1CCCCC1C(=O)Nc1ccc(-c2ccccc2OC(F)(F)F)c(Cl)c1` (stereo not shown) [Example 45, N-(2-chloro-2′-(trifluoromethoxy)-[1,1′-biphenyl]-4-yl)-1-(3-methoxypropanoyl)piperidine-2-carboxamide], the inhibition at 33 µM [1] is reported as 92% and the inhibition at 5 µM [2] is reported as 99.9%.

In the case of `O=C(Nc1ccc(-c2ccccc2OC(F)(F)F)c(Cl)c1)[C@H]1CCCCN1C(=O)CCn1cnnn1` [Example 58, (R)-1-(3-(1H-tetrazol-1-yl)propanoyl)-N-(2-chloro-2′-(trifluoromethoxy)-[1,1′-biphenyl]-4-yl)piperidine-2-carboxamide], the inhibition at 33 µM [1] is reported as 100% and the inhibition at 5 µM [2] is reported as 99.7%.

`NC(=O)N1CCCC[C@@H]1C(=O)Nc1ccc(-c2ccccc2OC(F)(F)F)c(Cl)c1` [Example 22, (R)-N^2-(2-chloro-2′-(trifluoromethoxy)-[1,1′-biphenyl]-4-yl)piperidine-1,2-dicarboxamide] gave an inhibition at 33 µM [1] of 92.4% and an inhibition at 5 µM [2] of 98.1%.

In the case of `O=C(Nc1ccc(-c2ccccc2OC(F)(F)F)c(Cl)c1)[C@H]1CCCCN1C(=O)Cn1ccnc1` [Example 65, (R)-1-(2-(1H-imidazol-1-yl)acetyl)-N-(2-chloro-2′-(trifluoromethoxy)-[1,1′-biphenyl]-4-yl)piperidine-2-carboxamide], the inhibition at 33 µM [1] is reported as 91.7% and the inhibition at 5 µM [2] is reported as 99.6%.

`O=C(Nc1ccc(-c2ccccc2OC(F)(F)F)c(Cl)c1)[C@H]1CCCCN1C(=O)C(F)(F)F` [Example 23, (R)-N-(2-chloro-2′-(trifluoromethoxy)-[1,1′-biphenyl]-4-yl)-1-(2,2,2-trifluoroacetyl)piperidine-2-carboxamide] showed an inhibition at 33 µM [1] of 98.4% and an inhibition at 5 µM [2] of 99.4%.

`COC(=O)CC(=O)N1CCCCC1C(=O)Nc1ccc(-c2ccccc2OC(F)(F)F)c(Cl)c1` (stereo not shown) [Example 43, methyl 3-(2-((2-chloro-2′-(trifluoromethoxy)-[1,1′-biphenyl]-4-yl)carbamoyl)piperidin-1-yl)-3-oxopropanoate] was tested, and the inhibition at 33 µM [1] was 99% and the inhibition at 5 µM [2] was 92.4%.

Molecule `O=C(Nc1ccc(-c2ccccc2OC(F)(F)F)c(Cl)c1)[C@H]1CCCCN1C(=O)Cn1cccn1` [Example 61, (R)-1-(2-(1H-pyrazol-1-yl)acetyl)-N-(2-chloro-2′-(trifluoromethoxy)-[1,1′-biphenyl]-4-yl)piperidine-2-carboxamide] has an inhibition at 33 µM [1] of 102% and an inhibition at 5 µM [2] of 98.8%.

`CC(=O)N1CC[C@@H](F)C[C@@H]1C(=O)Nc1ccc(-c2ccccc2OC(F)(F)F)c(Cl)c1` [Example 25, (2R,4R)-1-acetyl-N-(2-chloro-2′-(trifluoromethoxy)-[1,1′-biphenyl]-4-yl)-4-fluoropiperidine-2-carboxamide] showed an inhibition at 33 µM [1] of 94.2% and an inhibition at 5 µM [2] of 99.4%.

Molecule `Cc1nnc(CC(=O)N2CCCC[C@@H]2C(=O)Nc2ccc(-c3ccccc3OC(F)(F)F)c(Cl)c2)o1` [Example 67, (R)-N-(2-chloro-2′-(trifluoromethoxy)-[1,1′-biphenyl]-4-yl)-1-(2-(5-methyl-1,3,4-oxadiazol-2-yl)acetyl)piperidine-2-carboxamide] has an inhibition at 33 µM [1] of 99.1% and an inhibition at 5 µM [2] of 98.7%.

`CSCCC(=O)N1CCCCC1C(=O)Nc1ccc(-c2ccccc2OC(F)(F)F)c(Cl)c1` (stereo not shown) [Example 39, N-(2-chloro-2′-(trifluoromethoxy)-[1,1′-biphenyl]-4-yl)-1-(3-(methylthio)propanoyl)piperidine-2-carboxamide] showed an inhibition at 33 µM [1] of 98.8% and an inhibition at 5 µM [2] of 99.2%.

For `CN(CCC(=O)N1CCCCC1C(=O)Nc1ccc(-c2ccccc2OC(F)(F)F)c(Cl)c1)S(C)(=O)=O` (stereo not shown) [Example 36, N-(2-chloro-2′-(trifluoromethoxy)-[1,1′-biphenyl]-4-yl)-1-(3-(N-methylmethylsulfonamide)propanoyl)piperidine-2-carboxamide], the inhibition at 33 µM [1] was 97.2% and the inhibition at 5 µM [2] was 96.9%.

For `CCN(CC(=O)N1CCCCC1C(=O)Nc1ccc(-c2ccccc2OC(F)(F)F)c(Cl)c1)S(C)(=O)=O` (stereo not shown) [Example 37, N-(2-chloro-2′-(trifluoromethoxy)-[1,1′-biphenyl]-4-yl)-1-(2-(N-ethylmethylsulfonamide)acetyl)piperidine-2-carboxamide], the inhibition at 33 µM [1] was 104% and the inhibition at 5 µM [2] was 99.1%.

Work on `COC(=O)CCC(=O)N1CCCCC1C(=O)Nc1ccc(-c2ccccc2OC(F)(F)F)c(Cl)c1` (stereo not shown) [Example 44, methyl 4-(2-((2-chloro-2′-(trifluoromethoxy)-[1,1′-biphenyl]-4-yl)carbamoyl)piperidin-1-yl)-4-oxobutanoate] yielded an inhibition at 33 µM [1] of 97.1% and an inhibition at 5 µM [2] of 91.5%.

`CC(=O)N1CCCCC1C(=O)Nc1ccc(-c2ccccc2OC(F)(F)F)c(Cl)c1` (stereo not shown) [Example 1, 1-acetyl-N-(2-chloro-2′-(trifluoromethoxy)-[1,1′-biphenyl]-4-yl)piperidine-2-carboxamide] was tested, and the inhibition at 33 µM [1] was 90.9% and the inhibition at 5 µM [2] was 94%.

With `O=C(Nc1ccc(-c2ccccc2OC(F)(F)F)c(Cl)c1)C1CCCCN1C(=O)Cc1ccco1` (stereo not shown) [Example 54, 1-(2-(furan-2-yl)acetyl)-N-(2-chloro-2′-(trifluoromethoxy)-[1,1′-biphenyl]-4-yl)piperidine-2-carboxamide] the inhibition at 33 µM [1] was 102% and the inhibition at 5 µM [2] was 98.7%.

`CN(CC(=O)N1CCCCC1C(=O)Nc1ccc(-c2ccccc2OC(F)(F)F)c(Cl)c1)S(C)(=O)=O` (stereo not shown) [Example 13, N-(2-chloro-2′-(trifluoromethoxy)-[1,1′-biphenyl]-4-yl)-1-(2-(N-methylmethylsulfonamide)acetyl)piperidine-2-carboxamide] showed an inhibition at 33 µM [1] of 101% and an inhibition at 5 µM [2] of 98.2%.

With `O=C(Nc1ccc(-c2ccccc2OC(F)(F)F)c(Cl)c1)C1CCCCN1C(=O)Cn1ccnc1` (stereo not shown) [Example 52, 1-(2-(1H-imidazol-1-yl)acetyl)-N-(2-chloro-2′-(trifluoromethoxy)-[1,1′-biphenyl]-4-yl)piperidine-2-carboxamide] the inhibition at 33 µM [1] was 97.3% and the inhibition at 5 µM [2] was 99.3%.

With `O=C(Nc1ccc(-c2ccccc2OC(F)(F)F)c(Cl)c1)C1CCCCN1C(=O)CCO` (stereo not shown) [Example 42, N-(2-chloro-2′-(trifluoromethoxy)-[1,1′-biphenyl]-4-yl)-1-(3-hydroxypropanoyl)piperidine-2-carboxamide] the inhibition at 33 µM [1] was 92.8% and the inhibition at 5 µM [2] was 99.8%.

In the case of `O=C(Nc1ccc(-c2ccccc2OC(F)(F)F)c(Cl)c1)C1CCCCN1C(=O)Cn1cnnn1` (stereo not shown) [Example 53, 1-(2-(1H-tetrazol-1-yl)acetyl)-N-(2-chloro-2′-(trifluoromethoxy)-[1,1′-biphenyl]-4-yl)piperidine-2-carboxamide], the inhibition at 33 µM [1] is reported as 105% and the inhibition at 5 µM [2] is reported as 102%.
